The supplement of paper PMC10307832

compound: COCC[n+]1c2c(n(Cc3cnccn3)c1C)C(=O)c1ccccc1C2=O [YM155] + COc1cc2c(Oc3ccc(NC(=O)C4(C(=O)Nc5ccc(F)cc5)CC4)cc3F)ccnc2cc1OCCCN1CCOCC1 [Foretinib] (partner 0.25 µM); assay: relative viability (nuclei count vs DMSO), 5 days (fraction); higher = more cells survive; details: first compound 0.06325 µM
How it was run: (§1)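 Values are medians from duplicate plates. Each reflects relative viability, defined as the nuclei count of treated wells over that of vehicle wells. Lung cancer cell lines in 1536-well plates were pin-tool dosed one day after seeding with one drug alone or with a fixed anchor-drug dose plus five library-drug doses (not always all listed) in √10 steps, then fixed, stained and imaged at 4× after 5 days.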

Row | Cell Line | relative viability
1 | NCI-H1734 | 0.989
2 | HCC-78 | 0.586
3 | COR-L 105 | 0.733
4 | HCC-15 | 0.515
5 | HARA | 1.04
6 | NCI-H1975 | 0.308
7 | NCI-H1944 | 0.91
8 | NCI-H2126 | 1.29
9 | EMC-BAC-2 | 0.95
10 | SK-LU-1 | 0.661
11 | NCI-H2170 | 1.09
12 | CAL-12T | 0.587
13 | LK-2 | 1.22
14 | HOP-62 | 1.02
15 | PC-14 | 1.02
16 | NCI-H1993 | 0.64
17 | NCI-H2405 | 0.64
18 | NCI-H3122 | 0.933
19 | A-427 | 1.05

compound: COCC[n+]1c2c(n(Cc3cnccn3)c1C)C(=O)c1ccccc1C2=O [YM155] + Nc1nc2[nH]cc(CCc3ccc(C(=O)N[C@@H](CCC(=O)O)C(=O)O)cc3)c2c(=O)[nH]1 [Pemetrexed] (partner 0.2 µM); assay: as above; details: first compound 0.002 µM
How it was run: as §1

Row | Cell Line | relative viability
20 | SK-MES-1 | 0.937
21 | NCI-H1651 | 0.598
22 | UMC-11 | 0.817
23 | NCI-H1355 | 0.979
24 | H3255 | 0.587
25 | NCI-H647 | 0.189
26 | LXF-289 | 0.855
27 | LU99A | 0.164
28 | NCI-H2023 | 0.23
29 | NCI-H2228 | 0.329
30 | NCI-H1437 | 0.297
31 | NCI-H1395 | 0.857
32 | NCI-H2009 | 0.93
33 | HCC-366 | 0.161
34 | NCI-H1915 | 0.481
35 | NCI-H2347 | 0.542
36 | NCI-H1734 | 0.375

Row | Cell Line | relative viability
37 | HCC-78 | 0.896
38 | COR-L 105 | 1.01
39 | HCC-15 | 0.239
40 | NCI-H1975 | 0.26
41 | NCI-H1944 | 0.74
42 | NCI-H2126 | 0.696
43 | EMC-BAC-2 | 0.456
44 | SK-LU-1 | 0.946
45 | NCI-H2170 | 0.253
46 | CAL-12T | 1.23
47 | LK-2 | 0.276
48 | HOP-62 | 0.372
49 | PC-14 | 0.126
50 | NCI-H1993 | 0.566
51 | NCI-H2405 | 0.886
52 | NCI-H3122 | 0.185
53 | A-427 | 0.941

same assay, conditions: first compound 0.006325 µM

Row | Cell Line | relative viability
54 | SK-MES-1 | 1.03
55 | NCI-H1651 | 0.599
56 | UMC-11 | 0.823
57 | NCI-H1355 | 1.07
58 | H3255 | 0.627
59 | NCI-H647 | 0.171
60 | LCLC-97TM1 | 0.193
61 | LXF-289 | 0.914
62 | LU99A | 0.2
63 | NCI-H2023 | 0.247
64 | NCI-H2228 | 0.318
65 | NCI-H1437 | 0.305
66 | NCI-H1395 | 0.737
67 | NCI-H2009 | 1.07
68 | HCC-366 | 0.187
69 | NCI-H1915 | 0.494
70 | NCI-H2347 | 0.407
71 | NCI-H1734 | 0.404

Row | Cell Line | relative viability
72 | HCC-78 | 0.954
73 | COR-L 105 | 1.04
74 | HCC-15 | 0.229
75 | HARA | 0.235
76 | NCI-H1975 | 0.258
77 | NCI-H1944 | 0.559
78 | NCI-H2126 | 0.691
79 | EMC-BAC-2 | 0.486
80 | SK-LU-1 | 0.956
81 | NCI-H2170 | 0.256
82 | CAL-12T | 1.22
83 | LK-2 | 0.287
84 | HOP-62 | 0.365
85 | PC-14 | 0.136
86 | NCI-H1993 | 0.542
87 | NCI-H2405 | 0.961
88 | NCI-H3122 | 0.214
89 | A-427 | 1.02

same assay, conditions: first compound 0.02 µM

Row | Cell Line | relative viability
90 | SK-MES-1 | 0.955
91 | NCI-H1651 | 0.6
92 | UMC-11 | 0.878
93 | NCI-H1355 | 1.04
94 | H3255 | 0.565
95 | NCI-H647 | 0.173
96 | LCLC-97TM1 | 0.181
97 | LXF-289 | 0.827
98 | LU99A | 0.153
99 | NCI-H2023 | 0.194
100 | NCI-H2228 | 0.332
101 | NCI-H1437 | 0.33
102 | NCI-H1395 | 1.03
103 | NCI-H2009 | 0.85
104 | HCC-366 | 0.158
105 | NCI-H1915 | 0.439
106 | NCI-H2347 | 0.436
107 | NCI-H1734 | 0.399

Row | Cell Line | relative viability
108 | HCC-78 | 0.935
109 | COR-L 105 | 1
110 | HCC-15 | 0.23
111 | HARA | 0.228
112 | NCI-H1975 | 0.302
113 | NCI-H1944 | 0.587
114 | NCI-H2126 | 0.67
115 | EMC-BAC-2 | 0.463
116 | SK-LU-1 | 0.91
117 | NCI-H2170 | 0.271
118 | CAL-12T | 1.11
119 | LK-2 | 0.263
120 | HOP-62 | 0.325
121 | PC-14 | 0.148
122 | NCI-H1993 | 0.567
123 | NCI-H2405 | 0.914
124 | NCI-H3122 | 0.189
125 | A-427 | 1

same assay, conditions: first compound 0.06325 µM

Row | Cell Line | relative viability
126 | SK-MES-1 | 0.291
127 | NCI-H1651 | 0.615
128 | UMC-11 | 0.802
129 | NCI-H1355 | 0.997
130 | H3255 | 0.566
131 | NCI-H647 | 0.164
132 | LCLC-97TM1 | 0.18
133 | LXF-289 | 0.783
134 | LU99A | 0.177
135 | NCI-H2023 | 0.155
136 | NCI-H2228 | 0.326
137 | NCI-H1437 | 0.234
138 | NCI-H1395 | 0.906
139 | NCI-H2009 | 0.528
140 | HCC-366 | 0.165
141 | NCI-H1915 | 0.458
142 | NCI-H2347 | 0.39
143 | NCI-H1734 | 0.452
144 | HCC-78 | 0.913
145 | COR-L 105 | 0.602
146 | HCC-15 | 0.242
147 | HARA | 0.268
148 | NCI-H1975 | 0.167
149 | NCI-H1944 | 0.641
150 | NCI-H2126 | 0.753
151 | EMC-BAC-2 | 0.424
152 | SK-LU-1 | 0.684
